# Measurements as given in publication PMC4637315, “Hydroxycarboxylic acid receptors are essential for breast cancer cells to control their lipid/fatty acid metabolism” (Oncotarget, 2015).
# Tests used:
# Type in all cases: cell-based
# HCA1 [1] = target: T1, HCA1 (Homo sapiens, UniProt Q9BXC0); assay: cAMP decrease in BT-474 cells, blocked by pertussis toxin
# T1 construct: gene HCAR1; endogenous receptor in BT-474 cells
# HCA2 = target: T2, HCA2 (Homo sapiens, UniProt Q8TDS4); assay: AlphaScreen cAMP assay, inhibition of forskolin-induced cAMP in BT-474 cells, pertussis toxin sensitive
# T2 construct: gene HCAR2; endogenous receptor in BT-474 cells
# T2 sequence (Q8TDS4 whole entry): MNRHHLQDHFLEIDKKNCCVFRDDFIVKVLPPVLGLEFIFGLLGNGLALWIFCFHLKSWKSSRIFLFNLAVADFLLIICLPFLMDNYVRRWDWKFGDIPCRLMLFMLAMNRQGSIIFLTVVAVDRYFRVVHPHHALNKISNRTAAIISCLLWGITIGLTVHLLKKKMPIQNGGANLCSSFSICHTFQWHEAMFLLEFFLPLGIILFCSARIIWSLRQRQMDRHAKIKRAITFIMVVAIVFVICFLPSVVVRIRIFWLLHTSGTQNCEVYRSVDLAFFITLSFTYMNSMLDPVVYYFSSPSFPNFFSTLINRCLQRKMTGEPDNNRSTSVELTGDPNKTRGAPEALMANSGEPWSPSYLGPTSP
# HCA3 [2] = target: T3, HCA3 (Homo sapiens, UniProt P49019); assay: as above
# T3 construct: gene HCAR3; endogenous receptor in BT-474 cells
# T3 sequence (P49019 whole entry): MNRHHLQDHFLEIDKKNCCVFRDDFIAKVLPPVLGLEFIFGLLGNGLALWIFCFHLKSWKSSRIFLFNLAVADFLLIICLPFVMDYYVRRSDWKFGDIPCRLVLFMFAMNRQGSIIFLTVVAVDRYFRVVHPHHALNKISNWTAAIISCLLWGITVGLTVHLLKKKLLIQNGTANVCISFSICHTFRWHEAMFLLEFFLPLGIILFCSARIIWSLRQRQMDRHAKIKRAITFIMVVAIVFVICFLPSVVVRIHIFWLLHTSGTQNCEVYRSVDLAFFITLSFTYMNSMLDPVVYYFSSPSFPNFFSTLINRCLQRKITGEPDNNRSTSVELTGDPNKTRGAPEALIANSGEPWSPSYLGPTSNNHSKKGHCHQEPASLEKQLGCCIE
# HCA3 [3] = target: T3, HCA3; assay: cAMP decrease in BT-474 cells, blocked by pertussis toxin
# HCA1 [4] = target: T1, HCA1; assay: AlphaScreen cAMP assay, inhibition of forskolin-induced cAMP in BT-474 cells, pertussis toxin sensitive
# T1 sequence (Q9BXC0 whole entry): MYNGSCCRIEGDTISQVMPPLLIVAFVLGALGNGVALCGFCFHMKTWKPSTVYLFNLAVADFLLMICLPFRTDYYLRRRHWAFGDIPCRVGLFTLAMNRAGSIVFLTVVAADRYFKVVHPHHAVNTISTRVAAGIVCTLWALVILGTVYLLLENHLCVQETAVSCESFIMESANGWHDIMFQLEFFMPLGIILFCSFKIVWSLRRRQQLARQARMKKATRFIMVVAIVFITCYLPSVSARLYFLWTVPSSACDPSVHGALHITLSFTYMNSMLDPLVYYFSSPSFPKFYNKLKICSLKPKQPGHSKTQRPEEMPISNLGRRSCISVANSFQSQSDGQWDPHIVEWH
smiles,measurement,setting,value
"O=C(O)c1cc(O)cc(O)c1 [3,5 DHB, 3,5-dihydroxybenzoic acid]","cAMP decrease in BT-474 cells, blocked by pertussis toxin",HCA1 [1],synthetic HCA agonist-induced decrease in intracellular cAMP levels in BT-474 cells (Figure 3D-F)
"CC(O)CC(=O)O (centres unmarked) [3HB, 3-hydroxybutyrate]",EC50,HCA2,460 µM
"CCCCCC(O)CC(=O)O (centres unmarked) [3HO, 3-hydroxyoctanoate]",EC50,HCA3 [2],9.5 µM
"CC(C)n1nnc2cc(C(=O)O)ccc21 [IPBT-5CA, 1-(1-methylethyl)-1H-benzotriazole-5-carboxylic acid]","cAMP decrease in BT-474 cells, blocked by pertussis toxin",HCA3 [3],synthetic HCA agonist-induced decrease in intracellular cAMP levels in BT-474 cells (Figure 3D-F)
C[C@H](O)C(=O)O [lactate],EC50,HCA1 [4],3400 µM
